# According to ChEMBL document CHEMBL2216752, “Carnitine palmitoyltransferase (CPT) modulators: a medicinal chemistry perspective on 35 years of research” (J Med Chem, 2011):
# Experiments:
# Rattus norvegicus [1] = assay: Reduction in blood glucose in Sprague-Dawley rat at 600 umol/kg, po; format: functional; design: scale not given: the % may be the effect or the level left
# [2] = Toxicity in po dosed Sprague-Dawley rat assessed as hypoglycemic coma; format: organism-based; conditions: in vivo
# Rattus norvegicus [3] = assay: Reduction in blood glucose in po dosed Sprague-Dawley rat; format: functional
# [4] = target: T1, Carnitine O-palmitoyltransferase 2, mitochondrial (Rattus norvegicus, UniProt P18886); assay: Inhibition of rat CPT2
# T1 sequence (P18886 whole entry): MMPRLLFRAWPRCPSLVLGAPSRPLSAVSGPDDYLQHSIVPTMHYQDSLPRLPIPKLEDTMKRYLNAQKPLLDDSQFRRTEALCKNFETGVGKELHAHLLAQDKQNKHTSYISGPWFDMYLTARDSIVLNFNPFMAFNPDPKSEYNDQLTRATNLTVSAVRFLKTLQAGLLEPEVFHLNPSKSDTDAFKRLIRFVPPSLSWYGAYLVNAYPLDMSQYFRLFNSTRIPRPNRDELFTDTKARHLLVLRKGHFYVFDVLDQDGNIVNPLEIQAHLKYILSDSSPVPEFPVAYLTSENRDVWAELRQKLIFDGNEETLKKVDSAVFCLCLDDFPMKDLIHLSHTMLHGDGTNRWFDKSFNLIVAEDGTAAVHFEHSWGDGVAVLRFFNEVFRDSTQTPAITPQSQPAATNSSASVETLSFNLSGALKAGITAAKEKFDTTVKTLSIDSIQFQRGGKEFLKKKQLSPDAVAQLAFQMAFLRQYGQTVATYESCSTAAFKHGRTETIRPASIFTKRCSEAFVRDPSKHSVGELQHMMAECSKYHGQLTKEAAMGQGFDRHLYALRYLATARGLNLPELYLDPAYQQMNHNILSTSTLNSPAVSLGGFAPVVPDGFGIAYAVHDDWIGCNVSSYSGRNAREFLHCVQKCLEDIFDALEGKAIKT
# [5] = target: T2, Carnitine O-palmitoyltransferase 1, muscle isoform (Homo sapiens, UniProt Q92523); assay: Inhibition of human CPT1B
# T2 sequence (Q92523 whole entry): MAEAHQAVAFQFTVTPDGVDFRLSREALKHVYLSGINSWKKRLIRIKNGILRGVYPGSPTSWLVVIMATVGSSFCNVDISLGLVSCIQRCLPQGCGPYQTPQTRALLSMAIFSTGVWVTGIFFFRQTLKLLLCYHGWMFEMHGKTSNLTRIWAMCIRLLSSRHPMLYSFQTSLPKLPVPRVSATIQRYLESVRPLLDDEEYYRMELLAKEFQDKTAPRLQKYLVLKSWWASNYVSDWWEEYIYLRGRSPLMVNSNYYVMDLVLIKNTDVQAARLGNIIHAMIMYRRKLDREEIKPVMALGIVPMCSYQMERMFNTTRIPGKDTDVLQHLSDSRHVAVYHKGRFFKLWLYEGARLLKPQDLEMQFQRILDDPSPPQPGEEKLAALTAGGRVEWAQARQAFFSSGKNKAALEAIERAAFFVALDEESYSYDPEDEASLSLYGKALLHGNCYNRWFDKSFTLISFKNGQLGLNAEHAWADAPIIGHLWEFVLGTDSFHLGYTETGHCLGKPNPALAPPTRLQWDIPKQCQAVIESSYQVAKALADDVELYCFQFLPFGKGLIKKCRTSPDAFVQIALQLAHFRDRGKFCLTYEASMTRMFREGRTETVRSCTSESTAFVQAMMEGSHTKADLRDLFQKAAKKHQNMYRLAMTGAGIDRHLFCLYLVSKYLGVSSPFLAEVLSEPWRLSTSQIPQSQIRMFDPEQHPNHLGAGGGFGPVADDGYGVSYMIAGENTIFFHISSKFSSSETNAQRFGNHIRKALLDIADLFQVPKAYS
# [6] = target: T3, Carnitine O-palmitoyltransferase 1, liver isoform (Homo sapiens, UniProt P50416); assay: Inhibition of human CPT1A
# T3 sequence (P50416 whole entry): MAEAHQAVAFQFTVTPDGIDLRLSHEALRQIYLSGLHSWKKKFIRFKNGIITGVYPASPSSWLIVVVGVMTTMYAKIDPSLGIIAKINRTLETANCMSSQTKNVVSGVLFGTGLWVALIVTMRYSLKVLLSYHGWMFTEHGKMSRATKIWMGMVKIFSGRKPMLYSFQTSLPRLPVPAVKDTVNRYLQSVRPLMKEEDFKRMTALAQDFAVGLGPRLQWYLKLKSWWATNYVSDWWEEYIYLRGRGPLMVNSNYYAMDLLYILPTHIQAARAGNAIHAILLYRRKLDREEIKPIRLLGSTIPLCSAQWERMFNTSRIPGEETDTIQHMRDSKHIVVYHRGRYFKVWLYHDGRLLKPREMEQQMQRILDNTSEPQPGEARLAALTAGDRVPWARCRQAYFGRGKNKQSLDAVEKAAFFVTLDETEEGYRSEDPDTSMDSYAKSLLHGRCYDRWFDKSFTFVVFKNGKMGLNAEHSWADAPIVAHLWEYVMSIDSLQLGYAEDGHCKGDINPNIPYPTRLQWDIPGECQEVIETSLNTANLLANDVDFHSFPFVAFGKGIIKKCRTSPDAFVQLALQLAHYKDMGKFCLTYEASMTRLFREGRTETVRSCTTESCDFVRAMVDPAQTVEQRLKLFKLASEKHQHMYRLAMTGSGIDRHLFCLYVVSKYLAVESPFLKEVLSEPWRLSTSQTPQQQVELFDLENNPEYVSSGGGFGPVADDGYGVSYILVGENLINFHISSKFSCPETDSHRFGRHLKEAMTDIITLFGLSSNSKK
# [7] = target: T4, Mitochondrial carnitine/acylcarnitine carrier protein (Homo sapiens, UniProt O43772); assay: Inhibition of CACT
# T4 sequence (O43772 whole entry): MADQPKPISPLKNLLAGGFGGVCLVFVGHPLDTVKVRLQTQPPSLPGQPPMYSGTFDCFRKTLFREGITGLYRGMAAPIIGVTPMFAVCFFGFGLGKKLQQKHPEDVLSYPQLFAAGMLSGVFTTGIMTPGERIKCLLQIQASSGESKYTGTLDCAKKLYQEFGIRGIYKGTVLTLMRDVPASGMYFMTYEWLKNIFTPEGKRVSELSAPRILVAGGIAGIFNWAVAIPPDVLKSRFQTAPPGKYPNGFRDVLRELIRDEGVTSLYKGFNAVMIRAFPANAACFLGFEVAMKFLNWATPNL
# [8] = target: T2, Carnitine O-palmitoyltransferase 1, muscle isoform; assay: Inhibition of CPT1B
# [9] = target: T3, Carnitine O-palmitoyltransferase 1, liver isoform; assay: Inhibition of CPT1A
# [10] = Inhibition of human FAO
# [11] = Inhibition of rat FAO
# [12] = target: T3, Carnitine O-palmitoyltransferase 1, liver isoform; assay: Inhibition of human CPT1A expressed in Saccharomyces cerevisiae mitochondria assessed as palmitoylcarnitine by HPLC method
# [13] = target: T5, Carnitine O-palmitoyltransferase 2, mitochondrial (Homo sapiens, UniProt P23786); assay: Inhibition of human CPT2
# T5 sequence (P23786 whole entry): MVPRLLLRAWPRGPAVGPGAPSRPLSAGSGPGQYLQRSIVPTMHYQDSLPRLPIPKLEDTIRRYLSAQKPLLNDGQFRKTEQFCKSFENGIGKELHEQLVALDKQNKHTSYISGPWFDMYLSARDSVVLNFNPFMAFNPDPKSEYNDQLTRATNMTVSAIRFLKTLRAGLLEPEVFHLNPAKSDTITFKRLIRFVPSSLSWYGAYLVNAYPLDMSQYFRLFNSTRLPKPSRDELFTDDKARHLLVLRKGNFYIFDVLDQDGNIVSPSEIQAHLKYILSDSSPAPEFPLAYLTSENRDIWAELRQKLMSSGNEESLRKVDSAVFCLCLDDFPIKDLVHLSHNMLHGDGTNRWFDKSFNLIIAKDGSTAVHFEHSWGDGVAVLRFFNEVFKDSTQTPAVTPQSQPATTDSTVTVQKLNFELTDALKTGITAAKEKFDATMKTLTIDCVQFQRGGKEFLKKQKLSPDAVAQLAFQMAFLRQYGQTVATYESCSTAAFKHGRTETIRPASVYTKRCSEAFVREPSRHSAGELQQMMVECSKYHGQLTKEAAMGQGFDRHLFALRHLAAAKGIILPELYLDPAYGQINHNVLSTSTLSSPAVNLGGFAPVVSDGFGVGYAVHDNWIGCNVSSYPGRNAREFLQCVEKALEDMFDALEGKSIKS
# [14] = Critical micelle concentration of compound; format: physicochemical
# [15] = Inhibition of carnitine palmitoyltransferase in rat heart mitochondria assessed as conversion of [14C]palmitic acid to [14C]palmitoylcarnitine by radiometric assay
# Mus musculus = assay: Reduction in glucose level in db/db mouse at 30 mg/kgl/day, po for 12 days; format: functional; design: scale not given: the % may be the effect or the level left; conditions: dose 30 mg/kg
# [16] = Inhibition of carnitine palmitoyltransferase in rat liver mitochondria assessed as conversion of [14C]palmitic acid to [14C]palmitoylcarnitine by radiometric assay
# [17] = target: T6, Carnitine O-palmitoyltransferase 1, liver isoform (Rattus norvegicus, UniProt P32198); assay: Inhibition of rat CPT1A using [3H]carnitine by radiometric assay
# T6 sequence (P32198 whole entry): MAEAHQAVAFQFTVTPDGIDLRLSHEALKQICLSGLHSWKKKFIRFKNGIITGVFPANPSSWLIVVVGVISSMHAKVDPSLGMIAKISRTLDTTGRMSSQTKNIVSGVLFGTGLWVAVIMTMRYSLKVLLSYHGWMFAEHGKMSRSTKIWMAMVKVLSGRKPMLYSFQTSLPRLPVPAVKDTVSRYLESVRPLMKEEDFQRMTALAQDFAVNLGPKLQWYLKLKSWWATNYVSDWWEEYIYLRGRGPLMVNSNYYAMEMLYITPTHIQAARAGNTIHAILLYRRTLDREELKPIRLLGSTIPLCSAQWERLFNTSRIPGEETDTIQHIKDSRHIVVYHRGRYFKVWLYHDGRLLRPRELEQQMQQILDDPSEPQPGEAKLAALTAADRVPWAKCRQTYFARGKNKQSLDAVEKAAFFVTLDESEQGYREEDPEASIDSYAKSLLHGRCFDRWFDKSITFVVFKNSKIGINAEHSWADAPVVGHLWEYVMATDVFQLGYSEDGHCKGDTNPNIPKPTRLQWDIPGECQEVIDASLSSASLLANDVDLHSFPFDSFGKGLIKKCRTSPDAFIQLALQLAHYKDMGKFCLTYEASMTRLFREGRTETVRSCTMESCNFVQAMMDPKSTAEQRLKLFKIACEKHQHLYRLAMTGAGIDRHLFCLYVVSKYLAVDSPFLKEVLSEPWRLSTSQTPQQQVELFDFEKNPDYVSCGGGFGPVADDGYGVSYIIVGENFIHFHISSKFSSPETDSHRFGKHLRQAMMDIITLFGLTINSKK
# [18] = target: T1, Carnitine O-palmitoyltransferase 2, mitochondrial; assay: Inhibition of rat CPT2 using [3H]carnitine by radiometric assay
compound,measurement,setting,value
CCOC(=O)C1(CCCCCc2ccc(Cl)cc2)CO1 (racemic),Activity,Rattus norvegicus [1],80%
same,LD50,[2],275 mg/kg
same,ED50,Rattus norvegicus [3],6 mg/kg
O=C(NCc1cccs1)c1nn(Cc2cccc(C(F)(F)F)c2)c2ccccc12,IC50,[4],> 100 µM
same,IC50,[5],> 100 µM
same,IC50,[6],0.026 µM
CCCCCCCCCCCCCCCC(=O)O[C@@H](CC(=O)[O-])C[N+](C)(C)C,IC50,[7],35 µM
O=C(O)C1(C(F)(F)CCCCCOc2ccc(Cl)cc2)CO1 (stereo not drawn),IC50,[8],> 50 µM
same,IC50,[9],0.25 µM
O=C(O)[C@@]1(CCCCCCOc2ccccc2)CO1 [DECHLOROETOMOXIR],IC50,[10],1.8 µM
same,IC50,[11],4.4 µM
CCCCCc1ccc(S(=O)(=O)NC2(CC(=O)[O-])CCC[N+](C)(C)C2)cc1 (stereo not drawn),IC50,[12],< 1 µM
N[C@H](C(=O)O)c1ccc(O)cc1 [OXFENICINE],IC50,[13],> 100 µM
same,IC50,[5],> 100 µM
same,IC50,[10],> 100 µM
same,IC50,[6],> 100 µM
same,IC50,[11],> 100 µM
CCCCCCOc1cccc(OCCCCNC(=O)N[C@H](CC(=O)[O-])C[P+](C)(C)C)c1,CMC,[14],0.55 mM
same,IC50,[15],57.3 µM
same,Activity,Mus musculus,30%
same,IC50,[16],0.12 µM
CCCCCCCCCCCCCCCC1(O)C[N+](C)(C)CC(CC(=O)[O-])O1 (stereo in doubt; (+)-27),IC50,[17],38.5 µM
same,IC50,[18],47.5 µM
COc1ccc(C)cc1S(=O)(=O)N1CCCc2ccc(C(=O)Nc3ccc(CC(=O)O)cc3)cc21,IC50,[4],16.7 µM
same,IC50,[13],2.8 µM
same,IC50,[5],3.5 µM
same,IC50,[6],0.16 µM
CCCCCc1ccc(S(=O)(=O)NC2(CC(=O)[O-])CC[N+](C)(C)CC2)cc1,IC50,[12],< 1 µM
